Source: patent US8614333B2, “Acenaphtho heterocyclic compound and application thereof” (Dalian University of Technology, priority 2010, dated 2013)

Columns and labels:
[1] = system: MCF-7 cells transfected with BAX/BAK interfering plasmid; assay: Cytotoxicity by MTT, cells transfected with BAX/BAK interfering plasmid; assay type: cell-based; settings: Homo sapiens, MCF7; MCF-7 with BAX/BAK interfering plasmid, MTT, 48 hours
Description: (§1) 3 μg of BAX/BAK interfering plasmid was transfected into MCF-7 cells by using calcium phosphate coprecipitation method, 24 hours later, the cells were collected. The expressions after the BAX and BAK proteins interfered with RNA was detected by Western, and the cell groups without plasmid transfection were treated similarly and were set as the control group. The transfected cells were inoculated in a 96-well plate (1×10^5 cells/well), the control experiment of the cell group without plasmid transfection was carried out in parallel. The compound 1 to be detected was added thereinto according to the concentration gradient designed before the experiment. 48 hours later, the cellular vitality was detected by MTT. The experimental results were shown in FIG. 9, Gossypol as nonspecific BH3 analogue was treated in parallel.
(§2) Other 24 compounds were also detected by the same experimental method as described above, the differences of IC50 values between the transfected cells and the without plasmid transfection cells were compared.

GST-Bcl-2 protein = GST-Bcl-2 protein (Homo sapiens, UniProt P10415); assay: Fluorescence polarization assay, competition with FAM-Bid peptide for Bcl-2; settings: GST-Bcl-2 40 nM, FAM-Bid 5 nM, 4 hours of incubation, read-out: Bcl-2 binding constants
Description: (§3) A Bid BH3 peptide (amino acids: 79-99: […]) having 21 amino acids was synthesized and marked with 6-carboxyfluorescein N-succinimidyl ester (FAM) as fluorescent tag (FAM-Bid) at the N-terminal. The reaction system used in the competitive binding experiment was GST-Bcl-2 protein (40 nM) or Mcl-1 protein, which was dissolved in the reaction buffer (100 mM K3PO4, pH 7.5; 100 μg/ml bovine γ albumin; 0.02% sodium azide) together with FAM-Bid polypeptide (5 nM). In a 96-well plate, 100 µL of the reaction system was added into each well. Then 1 μL different concentration of compound 13 mother solution to be detected dissolved in DMSO was added there into until the final concentration met the experimental design requirements. Meanwhile, two control groups were established, one with the reaction system only containing Bcl-2 or Mcl-1 and FAM-Bid (equivalent to 0% inhibition rate), the other with the reaction system only containing FAM-Bid peptide. After 4 hours of incubation, the 96-well plate was detected by enzyme-labelled meter. The fluorescent polarization value (mP) was tested at […]. Ki value was deduced according to calculation formula.
(§4) The BH3 analogous degrees of other 12 compounds were detected by using the experimental method as described above.

Mcl-1 protein = Mcl-1 protein (Homo sapiens, UniProt Q07820); assay: Fluorescence polarization assay, competition with FAM-Bid peptide for Mcl-1; settings: FAM-Bid 5 nM, 4 hours of incubation, read-out: Mcl-1 binding constants
Description: as §3, §4

Mcl-1 = assay: Western blotting, semiquantitative analysis of Mcl-1 protein bands; assay type: cell-based; settings: control = 1, tumor cells
Description: (§5) The interest protein was detected by the corresponding antibody. The expression of the interest protein in the cells was detected by horseradish peroxidase-labeled secondary antibodies in combination with ECL coloration method. […] The concentration of the protein bands in the Western images were carried out semiquantitative analysis and normalization treatment with KODAK Gel Logic 1500 imaging system software.

MCF-7 cells = assay: Cytotoxicity by MTT, cells without plasmid transfection; assay type: cell-based; settings: Homo sapiens, MCF7; MCF-7, MTT, 48 hours; read-out: IC50 value in untransfected cells
Description: as §1, §2

[2] = system: BAX shift towards the chondriosome; assay: Co-localization between Bax protein and chondriosome, Bax-YFP in MCF-7 cells; assay type: cell-based; settings: for Doses (concentration at which the compound drove the BAX to shift towards the chondriosome): Bax-YFP/Mito Tracker Red; for Time (time period after which BAX shifted towards the chondriosome): at the concentration given
Description: 5 μg of Bax-YFP plasmid was transfected into MCF-7 cells by using calcium phosphate coprecipitation method, 24 hours later, the cells were inoculated in a 6-well plate (0.2×10^6 cells/well), and 10 μM of the compound 1 to be detected was added thereinto. 6 hours later, the cells were washed with PBS and hatched away from light with 50 nM Mito Tracker Red CMXRos (chondriosome specific probes; red) for 10 minutes. Then the cells were washed with PBS for three times, and the fluorescent image was scanned with Radiance2000 laser confocal microscopy (Bio-Rad, USA). Meanwhile, dual channel scanning was carried out, one channel was used to scan the green fluorescence of Bax-YFP, and the other channel was used to scan the red fluorescence of the CMXRos probe for indicating the chondriosome. […] When the Bax protein was localized on the chondriosome, the green and red fluorescence was superimposed into orange, as shown in FIG. 7.
Other 24 compounds were detected by the same experimental method as described above. […] Wherein the concentration and time meant that the detected compound simulated the BH3-only protein and driven the BAX to shift towards the chondriosome at the concentration for the time period.

[3] = target: T1, interaction between Bcl-2 and Bax (Homo sapiens, UniProt P10415); assay: Intracellular FRET, Bcl-2-CFP/Bax-YFP in Hela cells; assay type: cell-based; settings: for Time (time period after which the interaction between Bcl-2 and Bax was interfered): at the concentration given
T1 construct: expressed in transfected cells; host or cells: Hela cells
Description: 2 μg of Bcl-2-CFP and Bax-YFP plasmids were transfected separately or simultaneously into Hela cells by using calcium phosphate coprecipitation method, 24 hours later, the cells were inoculated in a 6-well plate (2×10^5 cells/well), and the compound 1 to be detected dissolved in DMSO was added there into until the final concentration (2, 5, 10 and 15 μM) was achieved. 24 hours later (please refer to FIG. 5); the cells were washed with PBS for three times. The fluorescence value was detected by GENIOS fluorescence enzyme-labelled meter (TECAN, Swiss). In time-dependent experiment, the transfected cells were inoculated in a 6-well plate, after that, 40 μM of the compound was added thereinto. 3, 6 and 24 hours later (FIG. 6), the fluorescence intensities were detected by plate reader. As for the cell group in which only Bcl-2-CFP plasmid was transfected, the values at 475 nm emission wave length and 433 nm excitation wave length were recorded. As for the cell group in which only Bax-YFP plasmid was transfected, the values at 527 nm emission wave length and 505 nm excitation wave length were recorded. As for the cell group in which Bcl-2-CFP and Bax-YFP plasmids were co-transfected, the values at 527 nm and 475 emission wave lengths and 433 nm excitation wave length were recorded. The ratio of fluorescence intensity at 527 nm and 475 nm emission wave lengths was FRET. The FRET for the control group in which the plasmid was solely transfected was set as 1.0. […] In the cotransfected cells, the FRET increased up to 2.0 due to the interaction of Bcl-2 protein and Bax protein, and that the interference to the interaction between the two proteins increased and FRET decreased with the increase of the drug concentration and time. The cellular vitality was detected by MTT method. When the concentration of the compound reached 1 μM, the interaction between Bcl-2 and Bax can be interfered after 2 hours, and the results appeared concentration-time dependent trend.
Wherein the concentration and time meant that the detected compound interfered with the interaction between Bcl-2 and Bax at the concentration for the time period.

Bcl-2 = assay: Western blotting, semiquantitative analysis of Bcl-2 protein bands; assay type: cell-based; settings: control = 1, tumor cells
Description: as §5

His-tagged Mcl-1 protein = His-tagged Mcl-1 protein (Homo sapiens, UniProt Q07820); assay: ELISA assay, competitive binding to Mcl-1 protein (biotin-Bim/streptavidin plate); settings: 20 nM His-tagged Mcl-1, method calculates average IC50, read-out: Mcl-1 binding constants
Description: (§6) The present inventors used fluorescence polarization assay to detect the bonding force between the protein and the compounds in a previous study (PCT/CN2010/075521). […] ELISA assay was used to detect the bonding force between the compounds and the protein in this application.
(§7) Biotinylated Bim peptide was diluted to 0.09 μg/mL in SuperBlock blocking buffer in PBS and incubated for 1.5 h in 96-well microtiter plates already coated with streptavidin to allow the formation of the complex between Biotin-Bim and streptavidin. All incubations were performed at room temperature unless otherwise noted. Each inhibitor was first dissolved in pure DMSO to obtain a 10 mM stock solution. For each tested inhibitor, different concentrations of the inhibitor were incubated with 20 nM His-tagged Mcl-1 protein in PBS for 1 h with a final DMSO concentration of 4%. The plates were washed three times with PBS containing 0.05% Tween-20. The inhibitor and protein mixture (100 μL) were transferred to the plate containing the biotin-Bim/streptavidin complex and incubated for 2 h. The plate was then washed as before and mouse anti-His antibody that conjugated with horseradish peroxidase was added into the wells and incubated for 1 h. The plate was then washed with PBS containing 0.05% Tween-20. Finally, TMB was added to each well; the enzymatic reaction was stopped after 30 min by addition of H2SO4 (100 μL, 2M). Absorbances were measured with a TECAN GENios (Swiss, TECAN) microplate reader using a wavelength of 450 nm. Three independent experiments were performed with each inhibitor to calculate average IC50 value and standard deviation (SD).
(§8) The BH3 analogous degrees of other 11 compounds were detected by using the experimental method as described above. The protein binding constant (binding constant in table 1) between them and Bcl-2 and Mcl-1 proteins were also on nM grade.

Bcl-2 protein = Bcl-2 protein (Homo sapiens, UniProt P10415); assay: ELISA assay, competitive binding to Bcl-2 protein (biotin-Bim/streptavidin plate); settings: method calculates average IC50, read-out: Bcl-2 binding constants
Description: as §6, §7, §8

GST-Bcl-2 protein, sequence (P10415 whole entry): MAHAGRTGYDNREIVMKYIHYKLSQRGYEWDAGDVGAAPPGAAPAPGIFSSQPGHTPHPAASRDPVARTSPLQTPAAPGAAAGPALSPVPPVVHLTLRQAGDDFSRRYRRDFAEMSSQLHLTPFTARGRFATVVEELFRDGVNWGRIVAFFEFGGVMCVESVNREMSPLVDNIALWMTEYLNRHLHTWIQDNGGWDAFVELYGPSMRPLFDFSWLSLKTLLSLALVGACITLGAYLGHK
T1 sequence (P10415 whole entry): as above
Mcl-1 protein, sequence (Q07820 whole entry, species assumed): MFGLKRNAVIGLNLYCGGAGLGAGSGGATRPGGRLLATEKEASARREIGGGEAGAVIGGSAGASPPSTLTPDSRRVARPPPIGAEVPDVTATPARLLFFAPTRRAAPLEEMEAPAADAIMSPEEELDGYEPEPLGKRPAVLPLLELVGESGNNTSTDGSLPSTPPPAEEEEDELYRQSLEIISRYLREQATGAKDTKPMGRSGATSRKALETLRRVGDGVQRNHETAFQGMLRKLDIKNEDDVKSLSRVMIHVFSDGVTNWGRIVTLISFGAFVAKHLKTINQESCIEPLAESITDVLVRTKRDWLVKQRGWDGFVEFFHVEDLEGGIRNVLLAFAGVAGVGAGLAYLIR
Bcl-2 protein, sequence (P10415 whole entry, species assumed): as the sequence (P10415 whole entry) above
His-tagged Mcl-1 protein, sequence (Q07820 whole entry): as the sequence (Q07820 whole entry, species assumed) above

Structure (SMILES)	Ki (GST-Bcl-2 protein)	Ki (Mcl-1 protein)	Doses (concentration at which the compound interfered with the interaction between Bcl-2 and Bax) [3]	Time (time period after which the interaction between Bcl-2 and Bax was interfered) [3]	IC50 (His-tagged Mcl-1 protein)	IC50 (Bcl-2 protein)	melting point	IC50 [1]	concentration of the protein bands (semiquantitative, normalized), Mcl-1 (Mcl-1; 2 h)	concentration of the protein bands (semiquantitative, normalized), Mcl-1 (Mcl-1; 6 h)	IC50 (MCF-7 cells)	Doses (concentration at which the compound drove the BAX to shift towards the chondriosome) [2]	Time (time period after which BAX shifted towards the chondriosome) [2]	concentration of the protein bands (semiquantitative, normalized), Bcl-2 (Bcl-2; 6 h)	concentration of the protein bands (semiquantitative, normalized), Bcl-2 (Bcl-2; 12 h)	concentration of the protein bands (semiquantitative, normalized), Bcl-2 (Bcl-2; 18 h)	concentration of the protein bands (semiquantitative, normalized), Bcl-2 (Bcl-2; 24 h)
CC(C)Cc1ccc(Sc2ccc3c4c(cccc24)C2=C(C#N)C(=O)N=C23)cc1 [Compound 19, 4-(4-Isobutyl-phenylsulfanyl)-8-oxo-8H-acenaphtho[1,2-b]pyrrole-9-carbonitrile]	23 nM	85 nM	0.3 µM	3 h	–	–	–	> 50000 nM	–	–	2200 nM	3.0 µM	3 h	–	–	–	–
CC(C)Cc1ccc(Oc2ccc3c4c(cccc24)C2=C(C#N)C(=O)N=C23)cc1 [Compound 16, 4-(4-Isobutyl-phenoxy)-8-oxo-8H-acenaphtho[1,2-b]pyrrole-9-carbonitrile]	210 nM	56 nM	0.5 µM	3 h	–	–	–	> 50000 nM	–	–	8500 nM	4.0 µM	3 h	–	–	–	–
N#CC1=C2C(=NC1=O)c1ccc(C(=O)c3ccc(CN)cc3)c3cccc2c13 [Compound 25, 4-(4-Aminomethyl-benzoyl)-8-oxo-8H-acenaphtho[1,2-b]pyrrole-9-carbonitrile]	115 nM	135 nM	0.6 µM	4 h	–	–	–	> 50000 nM	–	–	6500 nM	6.0 µM	4 h	–	–	–	–

The next lines start with results.

Ki (GST-Bcl-2 protein)	Ki (Mcl-1 protein)	Doses (concentration at which the compound interfered with the interaction between Bcl-2 and Bax) [3]	Time (time period after which the interaction between Bcl-2 and Bax was interfered) [3]	IC50 (His-tagged Mcl-1 protein)	IC50 (Bcl-2 protein)	melting point	Structure (SMILES)	IC50 [1]	concentration of the protein bands (semiquantitative, normalized), Mcl-1 (Mcl-1; 2 h)	concentration of the protein bands (semiquantitative, normalized), Mcl-1 (Mcl-1; 6 h)	IC50 (MCF-7 cells)	Doses (concentration at which the compound drove the BAX to shift towards the chondriosome) [2]	Time (time period after which BAX shifted towards the chondriosome) [2]	concentration of the protein bands (semiquantitative, normalized), Bcl-2 (Bcl-2; 6 h)	concentration of the protein bands (semiquantitative, normalized), Bcl-2 (Bcl-2; 12 h)	concentration of the protein bands (semiquantitative, normalized), Bcl-2 (Bcl-2; 18 h)	concentration of the protein bands (semiquantitative, normalized), Bcl-2 (Bcl-2; 24 h)
23 nM	57 nM	0.2 µM	2 h	–	–	–	CC(C)c1ccc(Sc2ccc3c4c(cccc24)C2=NC(=O)C(C#N)=C23)cc1 [Compound 20, 3-(4-Isopropyl-phenylsulfanyl)-8-oxo-8H-acenaphtho[1,2-b]pyrrole-9-carbonitrile]	> 50000 nM	0.60	0.29	2100 nM	5.0 µM	3 h	0.99	0.99	0.50	0.23
–	–	0.2 µM	2 h	14 nM	8 nM	252 to 253 °C	O=C1N=C2C(=C1NCCCc1ccccc1)c1cccc3cccc2c13 [Compound 3, 9-(3-Phenyl-propylamino)-acenaphtho[1,2-b]pyrrol-8-one]	> 50000 nM	0.65	0.29	3000 nM	0.2 µM	2 h	0.99	0.99	0.49	0.18
105 nM	85 nM	0.5 µM	5 h	–	–	–	CCCCCCOc1ccc2c3c(cccc13)C1=NC(=O)C(C(=O)O)=C12 [Compound 26, 3-Hexyloxy-8-oxo-8H-acenaphtho[1,2-b]pyrrole-9-carboxylic acid]	> 50000 nM	–	–	6200 nM	5.0 µM	5 h	–	–	–	–
